Experiments:
Assay type in all cases: cell-based
UO-31 = assay: NCI 60 cell assay, renal UO-31; conditions: Homo sapiens, 48 h; UO-31 (renal); drug exposure two days, SRB endpoint; read-out: GI-50 value
Procedure: (§1) Samples were tested in the standard National Cancer Institute 60-cell line protocol. First, they were tested against all 60 cell lines in a single final concentration of 10 micromolar. Then, they were separately tested in five 10-fold dilutions. The drug exposure was two days, with an SRB endpoint.

SNB-19 = assay: NCI 60 cell assay, CNS SNB-19; conditions: Homo sapiens, 48 h; SNB-19 (CNS); drug exposure two days, SRB endpoint; read-out: GI-50 value
Procedure: as §1

SNB-75 = assay: NCI 60 cell assay, CNS SNB-75; conditions: Homo sapiens, 48 h; SNB-75 (CNS); drug exposure two days, SRB endpoint; read-out: GI-50 value
Procedure: as §1

SW-620 = assay: NCI 60 cell assay, colon SW-620; conditions: Homo sapiens, 48 h; SW-620 (colon); drug exposure two days, SRB endpoint; read-out: GI-50 value
Procedure: as §1

M14 = assay: NCI 60 cell assay, melanoma M14; conditions: Homo sapiens, 48 h, drug exposure two days, SRB endpoint, read-out: GI-50 value
Procedure: as §1

TK-10 = assay: NCI 60 cell assay, renal TK-10; conditions: Homo sapiens, 48 h; TK-10 (renal); drug exposure two days, SRB endpoint; read-out: GI-50 value
Procedure: as §1

COLO 205 = assay: NCI 60 cell assay, colon COLO 205; conditions: Homo sapiens, 48 h; COLO 205 (colon); drug exposure two days, SRB endpoint; read-out: GI-50 value
Procedure: as §1

SK-MEL-2 = assay: NCI 60 cell assay, melanoma SK-MEL-2; conditions: Homo sapiens, 48 h; SK-MEL-2 (melanoma); drug exposure two days, SRB endpoint; read-out: GI-50 value
Procedure: as §1

HCC-2998 = assay: NCI 60 cell assay, colon HCC-2998; conditions: Homo sapiens, 48 h; HCC-2998 (colon); drug exposure two days, SRB endpoint; read-out: GI-50 value
Procedure: as §1

UACC-257 = assay: NCI 60 cell assay, melanoma UACC-257; conditions: Homo sapiens, 48 h; UACC-257 (melanoma); drug exposure two days, SRB endpoint; read-out: GI-50 value
Procedure: as §1

HOP-62 = assay: NCI 60 cell assay, NSCLC HOP-62; conditions: Homo sapiens, 48 h; HOP-62 (NSCLC); drug exposure two days, SRB endpoint; read-out: GI-50 value
Procedure: as §1

A498 = assay: NCI 60 cell assay, renal A498; conditions: Homo sapiens, 48 h, drug exposure two days, SRB endpoint, read-out: GI-50 value
Procedure: as §1

MCF7 = assay: NCI 60 cell assay, breast MCF7; conditions: Homo sapiens, 48 h, drug exposure two days, SRB endpoint, read-out: GI-50 value
Procedure: as §1

SN12C = assay: NCI 60 cell assay, renal SN12C; conditions: Homo sapiens, 48 h, drug exposure two days, SRB endpoint, read-out: GI-50 value
Procedure: as §1

RXF 393 = assay: NCI 60 cell assay, renal RXF 393; conditions: Homo sapiens, 48 h; RXF 393 (renal); drug exposure two days, SRB endpoint; read-out: GI-50 value
Procedure: as §1

OVCAR-8 = assay: NCI 60 cell assay, ovarian OVCAR-8; conditions: Homo sapiens, 48 h; OVCAR-8 (ovarian); drug exposure two days, SRB endpoint; read-out: GI-50 value
Procedure: as §1

NCI/ADR-RES = assay: NCI 60 cell assay, ovarian NCI/ADR-RES; conditions: Homo sapiens, 48 h, drug exposure two days, SRB endpoint, read-out: GI-50 value
Procedure: as §1

PC-3 = assay: NCI 60 cell assay, prostate PC-3; conditions: Homo sapiens, 48 h; PC-3 (prostate); drug exposure two days, SRB endpoint; read-out: GI-50 value
Procedure: as §1

MALME-3M = assay: NCI 60 cell assay, melanoma MALME-3M; conditions: Homo sapiens, 48 h; MALME-3M (melanoma); drug exposure two days, SRB endpoint; read-out: GI-50 value
Procedure: as §1

SF-268 = assay: NCI 60 cell assay, CNS SF-268; conditions: Homo sapiens, 48 h; SF-268 (CNS); drug exposure two days, SRB endpoint; read-out: GI-50 value
Procedure: as §1

OVCAR-4 = assay: NCI 60 cell assay, ovarian OVCAR-4; conditions: Homo sapiens, 48 h; OVCAR-4 (ovarian); drug exposure two days, SRB endpoint; read-out: GI-50 value
Procedure: as §1

SK-OV-3 = assay: NCI 60 cell assay, ovarian SK-OV-3; conditions: Homo sapiens, 48 h; SK-OV-3 (ovarian); drug exposure two days, SRB endpoint; read-out: GI-50 value
Procedure: as §1

K-562 = assay: NCI 60 cell assay, leukemia K-562; conditions: Homo sapiens, K562, 48 h; K-562 (leukemia); drug exposure two days, SRB endpoint; read-out: GI-50 value
Procedure: as §1

KM12 = assay: NCI 60 cell assay, colon KM12; conditions: Homo sapiens, 48 h, drug exposure two days, SRB endpoint, read-out: GI-50 value
Procedure: as §1

NCI-H23 = assay: NCI 60 cell assay, NSCLC NCI-H23; conditions: Homo sapiens, 48 h, drug exposure two days, SRB endpoint, read-out: GI-50 value
Procedure: as §1

SK-MEL-28 = assay: NCI 60 cell assay, melanoma SK-MEL-28; conditions: Homo sapiens, 48 h; SK-MEL-28 (melanoma); drug exposure two days, SRB endpoint; read-out: GI-50 value
Procedure: as §1

SF-295 = assay: NCI 60 cell assay, CNS SF-295; conditions: Homo sapiens, 48 h; SF-295 (CNS); drug exposure two days, SRB endpoint; read-out: GI-50 value
Procedure: as §1

SMILES	GI50 (UO-31) [nM]	GI50 (SNB-19) [µM]	GI50 (SNB-75) [µM]	GI50 (SW-620) [µM]	GI50 (M14) [µM]	GI50 (TK-10) [µM]	GI50 (COLO 205) [µM]	GI50 (SK-MEL-2) [µM]	GI50 (HCC-2998) [µM]	GI50 (UACC-257) [µM]	GI50 (HOP-62) [µM]	GI50 (A498) [nM]	GI50 (MCF7) [µM]	GI50 (SN12C) [µM]	GI50 (RXF 393) [nM]	GI50 (OVCAR-8) [nM]	GI50 (NCI/ADR-RES) [nM]	GI50 (PC-3) [µM]	GI50 (MALME-3M) [µM]	GI50 (SF-268) [nM]	other results
CC1=C2[C@@H](CC1)[C@]1(C)O[C@@](c3ccccc3)(C[C@H]1OC(=O)CO)[C@H]2OC(=O)C=Cc1ccccc1 [(Ir), (3aR,4S,5R,7R,8S)-5-(2-hydroxyacetoxy)-1,4-dimethyl-7-phenyl-2,3,3a,4,5,6,7,8-octahydro-4,7-epoxyazulen-8-yl cinnamate]	550	22	15	21	17	23	15	16	15	19	18	89	10	11	27	260	340	10	20	1400	GI50 (OVCAR-4): 15 µM; GI50 (SK-OV-3): 19 µM; GI50 (K-562): 16 µM; GI50 (KM12): 16 µM; GI50 (NCI-H23): 17 µM; GI50 (SK-MEL-28): 18 µM; GI50 (SF-295): 14 µM
CC(=O)O[C@@H]1C[C@]2(C(C)C)O[C@@]1(C)[C@@H]1CCC(C)=C1[C@@H]2OC(=O)C=Cc1ccccc1 [(Im), (3aR,4S,5R,7R,8S)-5-acetoxy-7-isopropyl-1,4-dimethyl-2,3,3a,4,5,6,7,8-octahydro-4,7-epoxyazulen-8-yl cinnamate]	20000	85	28	39	40	93	32	100	68	28	89	2200	19	10	8900	9000	23000	8	39	35000	GI50 (OVCAR-4): 11 µM; GI50 (SK-OV-3): 71 µM; GI50 (K-562): 34 µM; GI50 (KM12): 40 µM; GI50 (NCI-H23): 35 µM; GI50 (SK-MEL-28): 69 µM; GI50 (SF-295): 39 µM
CC1=C2[C@@H](CC1)[C@]1(C)O[C@@](C3CCCCC3)(C[C@H]1OC(=O)CO)[C@H]2OC(=O)C=Cc1ccccc1 [(Iq), (3aR,4S,5R,7R,8S)-7-cyclohexyl-5-(2-hydroxyacetoxy)-1,4-dimethyl-2,3,3a,4,5,6,7,8-octahydro-4,7-epoxyazulen-8-yl cinnamate]	460	17	14	14	15	17	15	17	13	14	14	21	4.5	0.06	25	100	250	12	17	700	GI50 (OVCAR-4): 15 µM; GI50 (SK-OV-3): 13 µM; GI50 (K-562): 13 µM; GI50 (KM12): 14 µM; GI50 (NCI-H23): 14 µM; GI50 (SK-MEL-28): 17 µM; GI50 (SF-295): 12 µM

— patent US10287297B2, “Epoxyazulene derivatives useful for treating cancer and diabetes” (The United States of America, as represented by the …, priority 2015, dated 2019)
